Columns and labels:
Format in all cases: cell-based
[1] = molecular target: T1, pig TRPM8 (Sus scrofa, UniProt F1SM15); assay: In vitro pig TRPM8 automated patch-clamp assay (SyncroPatch 384PE, CHO cells); conditions: CHO cells expressing pig TRPM8, 28° C.
T1 construct: expressed in transfected cells; host or cells: CHO (pcDNA5/FRT/TO vector; hygromycin B and blasticidin selection)
Method: (§1) In Vitro Pig and Human TRPM8 Automated Patch-Clamp Assays
(§2) Automated whole-cell recordings of compound effects were performed on the SyncroPatch 384PE (Nanion Technologies, Munich, Germany) incorporated into a Biomek FX pipetting robot (Beckman Coulter, Jersey City, NJ, USA) using the same engineered CHO cell lines expressing human or pig TRPM8 channels. Data acquisition and analysis were performed with the proprietary software PatchControl 384 and DataControl 384, respectively (Nanion Technologies, Munich, Germany). All recordings were carried out using planar borosilicate glass patch clamp chips in a 384-microtiter plate format with patch hole resistances of 2-4 MO. For recordings, standard intracellular solution was used containing (in mM): 130 KF, 4 NaCl, 1 MgCl2, 0.5 CaCl2, 10 HEPES and 10 EGTA/KOH (pH 7.2) and standard extracellular solution contained in mM: 150 NaCl, 4 KCl, 0.5 CaCl2, 1 MgCl2 and 10 HEPES (pH 7.3).
(§3) Prior to the electrophysiological measurements, cells were harvested using Accutase (GIBCO, Fisher Scientific) and resuspended in warmed extracellular solution. The cell suspension was kept in the dedicated cell reservoir at 28° C. at a 1 million/ml cell density and shaken at 500 rounds per min (rpm). Experiments were performed at 28° C. throughout. Cells were distributed in high resistance 4-holes-per-well Nanion chips where they were caught on the patch holes by application of a −80 mbar pressure. The cell membrane was ruptured to obtain the whole-cell configuration with a pressure pulse of −250 mbar for 2 seconds. Voltage protocols were constructed using PatchControl 384. The cells were held at a holding potential of −60 mV and TRPM8 currents were recorded using a ramp protocol from −80 to +80 mV every 5 seconds before and after compound addition. Resulting currents were recorded at both −80 and +80 mV and current kinetics were exported and analyzed. From each plate, control wells with 200 μM menthol were recorded to validate the assay. One concentration of compound was applied to each of the other wells. For each concentration, compound response was determined by subtracting the baseline current recorded before compound addition from the maximum peak elicited currents obtained after compound addition. Then, each compound response was normalized to control condition without compound and maximum current (Emax) obtained for each compound. Nanion DataControl 384 software plotted current response for each compound concentration and was able to calculate an EC50 value for each active compound.

[2] = molecular target: T1, pig TRPM8; assay: In vitro pig TRPM8 fluorescence calcium flux assay (recombinant CHO cells, Fluo4-AM, FDSS6000); conditions: recombinant CHO cells expressing pig TRPM8; menthol-related EC50, normalized to 100 μM menthol
Method in brief: (§4)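 Agonist EC50 values come from sixteen-point dose responses normalized to the 100 μM menthol maximum, fitted sigmoidally. Calcium rise was followed for 3 min post-addition in recombinant CHO lines (human or pig TRPM8). Cells were dye-loaded with 2 μM Fluo4-AM, 1 h at room temperature, probenecid-containing HBSS.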

[3] = molecular target: T2, human TRPM8 (Homo sapiens, UniProt Q7Z2W7); assay: In vitro human TRPM8 automated patch-clamp assay (SyncroPatch 384PE, CHO cells); conditions: CHO cells expressing human TRPM8, 28° C.
T2 construct: expressed in transfected cells; host or cells: CHO (p658 mammalian expression vector)
Method: as §1, §2, §3

[4] = molecular target: T2, human TRPM8; assay: In vitro human TRPM8 fluorescence calcium flux assay (recombinant CHO cells, Fluo4-AM, FDSS6000); conditions: recombinant CHO cells expressing human TRPM8; menthol-related EC50, normalized to 100 μM menthol
Method in brief: as §4

T2 sequence (Q7Z2W7 whole entry): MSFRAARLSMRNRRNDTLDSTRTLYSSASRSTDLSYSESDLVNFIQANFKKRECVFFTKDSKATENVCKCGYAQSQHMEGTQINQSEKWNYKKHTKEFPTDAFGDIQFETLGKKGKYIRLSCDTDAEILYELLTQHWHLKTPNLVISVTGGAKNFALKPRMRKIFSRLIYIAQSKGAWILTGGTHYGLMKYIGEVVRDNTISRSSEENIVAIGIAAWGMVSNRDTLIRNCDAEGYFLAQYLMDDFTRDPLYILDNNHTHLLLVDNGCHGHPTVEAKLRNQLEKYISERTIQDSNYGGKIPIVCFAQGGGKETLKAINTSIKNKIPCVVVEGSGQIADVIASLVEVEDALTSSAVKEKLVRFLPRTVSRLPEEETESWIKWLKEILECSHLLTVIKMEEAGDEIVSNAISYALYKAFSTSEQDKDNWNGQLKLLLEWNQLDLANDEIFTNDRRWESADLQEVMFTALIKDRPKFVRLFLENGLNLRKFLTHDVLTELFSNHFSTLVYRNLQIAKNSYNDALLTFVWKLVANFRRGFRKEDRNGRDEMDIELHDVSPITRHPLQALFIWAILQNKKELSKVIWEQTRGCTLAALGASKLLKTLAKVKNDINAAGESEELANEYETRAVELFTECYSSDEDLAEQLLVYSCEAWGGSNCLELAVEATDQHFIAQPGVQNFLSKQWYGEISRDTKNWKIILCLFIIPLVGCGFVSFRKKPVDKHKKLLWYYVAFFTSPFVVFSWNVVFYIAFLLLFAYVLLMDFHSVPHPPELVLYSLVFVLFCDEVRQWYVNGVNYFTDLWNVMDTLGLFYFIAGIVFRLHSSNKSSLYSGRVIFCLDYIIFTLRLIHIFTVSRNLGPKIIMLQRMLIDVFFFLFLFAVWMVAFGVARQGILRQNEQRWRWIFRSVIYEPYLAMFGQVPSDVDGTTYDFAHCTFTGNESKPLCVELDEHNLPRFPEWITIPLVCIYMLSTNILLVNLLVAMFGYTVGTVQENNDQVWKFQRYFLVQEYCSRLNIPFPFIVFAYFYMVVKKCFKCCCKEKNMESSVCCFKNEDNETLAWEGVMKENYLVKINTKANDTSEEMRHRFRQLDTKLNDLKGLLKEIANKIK
T1 sequence (F1SM15 1-1104): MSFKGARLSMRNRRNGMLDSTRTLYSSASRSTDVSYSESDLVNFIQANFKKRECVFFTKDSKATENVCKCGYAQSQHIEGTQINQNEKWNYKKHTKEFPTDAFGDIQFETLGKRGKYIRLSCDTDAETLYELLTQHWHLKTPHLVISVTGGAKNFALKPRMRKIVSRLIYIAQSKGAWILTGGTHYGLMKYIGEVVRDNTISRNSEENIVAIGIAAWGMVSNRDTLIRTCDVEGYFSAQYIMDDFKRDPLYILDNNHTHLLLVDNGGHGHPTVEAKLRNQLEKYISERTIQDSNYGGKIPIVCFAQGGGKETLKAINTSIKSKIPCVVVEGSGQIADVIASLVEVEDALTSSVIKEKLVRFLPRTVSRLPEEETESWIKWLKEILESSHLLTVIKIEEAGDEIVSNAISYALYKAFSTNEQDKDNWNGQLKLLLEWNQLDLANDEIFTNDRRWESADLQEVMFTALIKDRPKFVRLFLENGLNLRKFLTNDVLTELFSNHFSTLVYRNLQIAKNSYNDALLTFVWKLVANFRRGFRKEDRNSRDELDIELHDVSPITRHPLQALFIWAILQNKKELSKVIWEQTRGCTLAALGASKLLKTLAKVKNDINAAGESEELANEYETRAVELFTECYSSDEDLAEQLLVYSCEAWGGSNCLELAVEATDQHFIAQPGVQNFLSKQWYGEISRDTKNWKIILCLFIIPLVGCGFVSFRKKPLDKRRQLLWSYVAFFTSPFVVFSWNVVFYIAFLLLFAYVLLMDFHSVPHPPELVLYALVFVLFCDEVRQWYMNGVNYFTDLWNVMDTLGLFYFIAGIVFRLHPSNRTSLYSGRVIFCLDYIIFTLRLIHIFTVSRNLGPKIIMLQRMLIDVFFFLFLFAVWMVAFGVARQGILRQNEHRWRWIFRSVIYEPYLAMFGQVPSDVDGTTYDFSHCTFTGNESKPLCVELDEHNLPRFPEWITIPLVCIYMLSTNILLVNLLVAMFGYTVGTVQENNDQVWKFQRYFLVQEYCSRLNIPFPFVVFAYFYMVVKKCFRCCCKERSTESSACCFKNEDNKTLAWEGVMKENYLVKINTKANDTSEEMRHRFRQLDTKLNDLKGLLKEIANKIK

Row | Structure (SMILES) | EC50 [1] [nM] | EC50 [2] [nM] | EC50 [3] [nM] | EC50 [4] [nM]
1 | CC(C)[C@@H]1CC[C@@H](C)C[C@@]1(O)C(=O)NCCc1ccccc1OCC(O)CO (stereo partly drawn) [Example 9, (1S,2S,5R)—N-(2-(2,3-dihydroxypropoxy)phenethyl)-1-hydroxy-2-isopropyl-5-methylcyclohexane-1-carboxamide] | 4100 | 6.3 | 2400 | 8.8
2 | CC(C)[C@@H]1CC[C@@H](C)C[C@@]1(O)C(=O)NCC(=O)Nc1ccc(O)cc1 [Example 88, (1S,2S,5R)-1-hydroxy-N-(2-((4-hydroxyphenyl)amino)-2-oxoethyl)-2-isopropyl-5-methylcyclohexane-1-carboxamide] | 1090 | 20 | 1500 | 56.7
3 | CCOC(=O)c1cccc(CCNC(=O)[C@]2(O)C[C@H](C)CC[C@H]2C(C)C)c1 [Example 28, ethyl 3-(2-((1S,2S,5R)-1-hydroxy-2-isopropyl-5-methylcyclohexane-1-carboxamido)ethyl)benzoate] | 5400 | 311 | 1440 | 250
4 | CC(C)[C@@H]1CC[C@@H](C)C[C@@]1(O)C(=O)NCCc1ccccc1OCCO [Example 7, (1S,2S,5R)-1-hydroxy-N-(2-(2-hydroxyethoxy)phenethyl)-2-isopropyl-5-methylcyclohexane-1-carboxamide] | 6190 | 8.1 | 2800 | 8.5
5 | COC(=O)[C@@H](N)COc1cccc(CCNC(=O)[C@]2(O)C[C@H](C)CC[C@H]2C(C)C)c1 [Example 27, methyl O-(3-(2-((1S,2S,5R)-1-hydroxy-2-isopropyl-5-methylcyclohexane-1-carboxamido)ethyl)phenyl)-L-serinate] | 4000 | 10.3 | 2400 | 3.1
6 | CC(C)[C@@H]1CC[C@@H](C)C[C@@]1(O)C(=O)NCC(=O)c1ccccc1 [Example 2, (1S,2S,5R)-1-hydroxy-2-isopropyl-5-methyl-N-(2-oxo-2-phenylethyl)cyclohexane-1-carboxamide] | 596 | 0.7 | 450 | 1.2
7 | CC(C)[C@@H]1CC[C@@H](C)C[C@@]1(O)C(=O)N[C@H](CO)Cc1ccccc1 [Example 146, (1S,2S,5R)-N-[(1S)-1-benzyl-2-hydroxy-ethyl]-1-hydroxy-2-isopropyl-5-methyl-cyclohexanecarboxamide] | 2390 | 16 | 1200 | 16
8 | CC(C)[C@@H]1CC[C@@H](C)C[C@@]1(O)C(=O)NCC(=O)Nc1ccccc1 [Example 129, (1S,2S,5R)-N-(2-anilino-2-oxo-ethyl)-1-hydroxy-2-isopropyl-5-methyl-cyclohexanecarboxamide] | 1250 | 2.6 | 3000 | 6.9
9 | CC(C)[C@@H]1CC[C@@H](C)C[C@@]1(O)C(=O)NC[C@@H](OCCO)c1ccccc1 [Example 56, (1S,2S,5R)-1-hydroxy-N—((S)-2-(2-hydroxyethoxy)-2-phenylethyl)-2-isopropyl-5-methylcyclohexane-1-carboxamide] | 6160 | 11.2 | > 10000 | 19.6
10 | CC(C)[C@@H]1CC[C@@H](C)C[C@@]1(O)C(=O)NCCc1cccnc1 [Example 124, (1S,2S,5R)-1-hydroxy-2-isopropyl-5-methyl-N-[2-(3-pyridyl)ethyl]cyclohexanecarboxamide] | 6760 | 11.7 | 6500 | 36.6
11 | COc1ccc(CCNC(=O)[C@]2(O)C[C@H](C)CC[C@H]2C(C)C)cc1OC [Example 113, (1S,2S,5R)-N-[2-(3,4-dimethoxyphenyl)ethyl]-1-hydroxy-2-isopropyl-5-methyl-cyclohexanecarboxamide] | 9640 | 93.5 | 1400 | 99.4
12 | CC(C)[C@@H]1CC[C@@H](C)C[C@@]1(O)C(=O)NCCc1cccc(OCC(O)CO)c1 (stereo partly drawn) [Example 10, (1S,2S,5R)—N-(3-(2,3-dihydroxypropoxy)phenethyl)-1-hydroxy-2-isopropyl-5-methylcyclohexane-1-carboxamide] | 4800 | 9.7 | 4130 | 21.4
13 | CC(C)[C@@H]1CC[C@@H](C)C[C@@]1(O)C(=O)NC[C@H](O)c1cccc(O)c1 [Example 41, (1S,2S,5R)-1-hydroxy-N-((2R)-hydroxy-2-(3-hydroxyphenyl)ethyl)-2-isopropyl-5-methylcyclohexane-1-carboxamide] | 5110 | 74.5 | 1100 | 195
14 | CC(C)[C@@H]1CC[C@@H](C)C[C@@]1(O)C(=O)NCC1(O)CCc2ccccc21 (stereo partly drawn) [Example 23, (1S,2S,5R)-1-hydroxy-N-((1-hydroxy-2,3-dihydro-1H-inden-1-yl)methyl)-2-isopropyl-5-methylcyclohexane-1-carboxamide] | 1070 | 6 | 500 | 7
15 | CC(C)[C@@H]1CC[C@@H](C)C[C@@]1(O)C(=O)NCC(=O)c1ccc(O)cc1 [Example 143, (1S,2S,5R)-1-hydroxy-N-[2-(4-hydroxyphenyl)-2-oxo-ethyl]-2-isopropyl-5-methyl-cyclohexanecarboxamide] | 985 | 7.3 | 1100 | 5.6
16 | CC(C)[C@@H]1CC[C@@H](C)C[C@@]1(O)C(=O)NCCc1cccc(C#N)c1 [Example 48, (1S,2S,5R)—N-(3-cyanophenethyl)-1-hydroxy-2-isopropyl-5-methylcyclohexane-1-carboxamide] | 4600 | 5 | 2630 | 13.5
17 | COC(=O)[C@H](N)COc1cccc(CCNC(=O)[C@]2(O)C[C@H](C)CC[C@H]2C(C)C)c1 [Example 26, methyl O-(3-(2-((1S,2S,5R)-1-hydroxy-2-isopropyl-5-methylcyclohexane-1-carboxamido)ethyl)phenyl)-D-serinate] | 1100 | 5.5 | 1800 | 3.7
18 | CC(C)[C@@H]1CC[C@@H](C)C[C@@]1(O)C(=O)NCC(O)c1ccc(F)cc1 (stereo partly drawn) [Example 158, (1S,2S,5R)-N-[2-(4-fluorophenyl)-2-hydroxy-ethyl]-1-hydroxy-2-isopropyl-5-methyl-cyclohexanecarboxamide] | 940 | 3 | 1900 | 7
19 | Cc1cccc(C(F)(F)CNC(=O)[C@]2(O)C[C@H](C)CC[C@H]2C(C)C)c1 [Example 187, (1S,2S,5R)—N-[2,2-difluoro-2-(3-methylphenyl)ethyl]-1-hydroxy-2-isopropyl-5-methyl-cyclohexanecarboxamide] | 550 | 6.2 | 510 | 33.8
20 | CC(C)[C@@H]1CC[C@@H](C)C[C@@]1(O)C(=O)NCC(CO)c1ccccc1 (single isomer, unassigned) [Example 89] | 3250 | 47.6 | 3300 | 90.3
21 | CC(C)[C@@H]1CC[C@@H](C)C[C@@]1(O)C(=O)NCC(=O)Oc1ccccc1 [Example 67, phenyl ((1S,2S,5R)-1-hydroxy-2-isopropyl-5-methylcyclohexane-1-carbonyl)glycinate] | 3360 | 5 | 2700 | 9
22 | COC(=O)CCc1ccccc1CCNC(=O)[C@]1(O)C[C@H](C)CC[C@H]1C(C)C [Example 93, methyl 3-(2-(2-((1S,2S,5R)-1-hydroxy-2-isopropyl-5-methylcyclohexane-1-carboxamido)ethyl)phenyl)propanoate] | 2000 | 67.8 | 2800 | 49.3

— patent US20240124408A1 (Sanofi, priority 2020, published 2024)
